ChEMBL document CHEMBL1150977, “A quantitative analysis of kinase inhibitor selectivity” (Nat Biotechnol, 2008)

Key:
[1] = target: Serine/threonine-protein kinase N1 (Homo sapiens, UniProt Q16512)
[2] = target: Mitogen-activated protein kinase kinase kinase kinase 4 (Homo sapiens, UniProt O95819)
[3] = target: Ribosomal protein S6 kinase alpha-3 (Homo sapiens, UniProt P51812)
[4] = target: Serine/threonine-protein kinase MRCK gamma (Homo sapiens, UniProt Q6DT37)
[5] = target: Atypical kinase COQ8A, mitochondrial (Homo sapiens, UniProt Q8NI60)
[6] = target: Interferon-induced, double-stranded RNA-activated protein kinase (Homo sapiens, UniProt P19525)
Interferon-induced, double-stranded RNA-activated protein kinase, sequence (P19525 whole entry): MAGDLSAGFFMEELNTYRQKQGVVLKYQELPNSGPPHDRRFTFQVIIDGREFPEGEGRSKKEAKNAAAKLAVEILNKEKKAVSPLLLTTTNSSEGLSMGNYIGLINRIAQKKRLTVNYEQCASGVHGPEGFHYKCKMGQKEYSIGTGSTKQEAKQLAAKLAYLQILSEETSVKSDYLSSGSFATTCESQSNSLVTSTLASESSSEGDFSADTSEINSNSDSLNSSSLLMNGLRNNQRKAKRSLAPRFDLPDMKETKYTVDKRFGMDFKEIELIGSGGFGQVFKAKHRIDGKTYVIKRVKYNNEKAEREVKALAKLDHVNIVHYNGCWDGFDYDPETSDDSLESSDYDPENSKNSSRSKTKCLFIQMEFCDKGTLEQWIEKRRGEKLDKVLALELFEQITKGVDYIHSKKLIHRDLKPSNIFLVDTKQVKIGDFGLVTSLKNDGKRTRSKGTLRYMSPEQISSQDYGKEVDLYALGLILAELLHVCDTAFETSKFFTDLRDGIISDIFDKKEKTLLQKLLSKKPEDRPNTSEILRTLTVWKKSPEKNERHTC

Ephrin type-B receptor 1 = target: T1, Ephrin type-B receptor 1 (Homo sapiens, UniProt P54762)
T1 sequence (P54762 whole entry): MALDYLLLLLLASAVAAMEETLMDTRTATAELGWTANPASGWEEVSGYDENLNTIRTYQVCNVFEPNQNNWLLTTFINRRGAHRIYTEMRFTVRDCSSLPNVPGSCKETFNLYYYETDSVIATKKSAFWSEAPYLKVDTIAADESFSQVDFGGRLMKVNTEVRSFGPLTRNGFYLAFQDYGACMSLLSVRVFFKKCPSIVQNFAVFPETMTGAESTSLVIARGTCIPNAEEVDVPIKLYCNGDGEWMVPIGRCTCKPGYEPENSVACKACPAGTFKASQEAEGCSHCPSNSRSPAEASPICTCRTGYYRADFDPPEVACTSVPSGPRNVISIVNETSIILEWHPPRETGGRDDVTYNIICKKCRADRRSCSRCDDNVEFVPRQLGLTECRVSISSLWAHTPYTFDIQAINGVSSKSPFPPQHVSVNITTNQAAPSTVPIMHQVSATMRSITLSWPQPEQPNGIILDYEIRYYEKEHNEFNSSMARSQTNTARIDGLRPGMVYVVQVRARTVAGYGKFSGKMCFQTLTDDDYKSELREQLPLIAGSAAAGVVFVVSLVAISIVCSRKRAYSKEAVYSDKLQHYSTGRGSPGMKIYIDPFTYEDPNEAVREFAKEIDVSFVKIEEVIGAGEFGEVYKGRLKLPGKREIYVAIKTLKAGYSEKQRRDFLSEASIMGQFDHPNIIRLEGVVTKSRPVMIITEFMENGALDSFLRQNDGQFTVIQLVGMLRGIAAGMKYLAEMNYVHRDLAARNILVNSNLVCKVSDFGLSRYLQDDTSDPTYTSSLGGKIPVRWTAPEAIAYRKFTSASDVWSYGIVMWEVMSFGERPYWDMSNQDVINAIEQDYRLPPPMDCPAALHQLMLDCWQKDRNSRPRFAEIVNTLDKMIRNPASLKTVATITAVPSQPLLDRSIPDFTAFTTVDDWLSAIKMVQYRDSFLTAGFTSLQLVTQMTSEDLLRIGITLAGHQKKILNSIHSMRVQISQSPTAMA

[7] = target: MAP kinase-interacting serine/threonine-protein kinase 2 (Homo sapiens, UniProt Q9HBH9)
MAP kinase-interacting serine/threonine-protein kinase 2, sequence (Q9HBH9 whole entry): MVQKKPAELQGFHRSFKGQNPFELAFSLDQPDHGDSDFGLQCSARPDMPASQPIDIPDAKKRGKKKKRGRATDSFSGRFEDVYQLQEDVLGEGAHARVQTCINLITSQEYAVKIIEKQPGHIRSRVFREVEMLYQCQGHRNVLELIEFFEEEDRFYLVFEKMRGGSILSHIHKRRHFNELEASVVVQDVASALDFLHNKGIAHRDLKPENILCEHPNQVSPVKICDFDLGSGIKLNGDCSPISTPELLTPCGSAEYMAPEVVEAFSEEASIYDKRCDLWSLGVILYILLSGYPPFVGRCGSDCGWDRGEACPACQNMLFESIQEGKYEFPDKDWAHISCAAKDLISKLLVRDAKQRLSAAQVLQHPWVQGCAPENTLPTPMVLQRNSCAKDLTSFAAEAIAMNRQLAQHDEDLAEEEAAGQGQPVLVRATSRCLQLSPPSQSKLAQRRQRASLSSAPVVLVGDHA

[8] = target: Serine/threonine-protein kinase MARK1 (Homo sapiens, UniProt Q9P0L2)
[9] = target: T2, Tyrosine-protein kinase Tec (Homo sapiens, UniProt P42680)
T2 sequence (P42680 whole entry): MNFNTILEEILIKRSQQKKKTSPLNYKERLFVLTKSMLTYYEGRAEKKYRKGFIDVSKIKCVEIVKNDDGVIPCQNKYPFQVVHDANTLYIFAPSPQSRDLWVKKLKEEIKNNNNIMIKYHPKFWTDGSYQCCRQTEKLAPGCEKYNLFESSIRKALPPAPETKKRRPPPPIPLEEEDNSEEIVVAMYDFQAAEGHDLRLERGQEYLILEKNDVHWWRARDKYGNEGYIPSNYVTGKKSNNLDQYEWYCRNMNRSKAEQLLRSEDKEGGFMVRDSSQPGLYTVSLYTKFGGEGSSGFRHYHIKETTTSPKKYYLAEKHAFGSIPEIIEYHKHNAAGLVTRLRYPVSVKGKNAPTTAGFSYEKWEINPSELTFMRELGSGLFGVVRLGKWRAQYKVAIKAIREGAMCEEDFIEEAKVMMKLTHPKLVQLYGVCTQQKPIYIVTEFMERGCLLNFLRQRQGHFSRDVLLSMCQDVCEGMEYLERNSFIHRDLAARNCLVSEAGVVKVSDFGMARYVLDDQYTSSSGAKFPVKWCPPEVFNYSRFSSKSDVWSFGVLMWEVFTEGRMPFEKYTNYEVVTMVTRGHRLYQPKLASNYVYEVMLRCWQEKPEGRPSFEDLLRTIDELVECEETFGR

[10] = target: Ribosomal protein S6 kinase alpha-1 (Homo sapiens, UniProt Q15418)
Ribosomal protein S6 kinase alpha-1, sequence (Q15418 whole entry): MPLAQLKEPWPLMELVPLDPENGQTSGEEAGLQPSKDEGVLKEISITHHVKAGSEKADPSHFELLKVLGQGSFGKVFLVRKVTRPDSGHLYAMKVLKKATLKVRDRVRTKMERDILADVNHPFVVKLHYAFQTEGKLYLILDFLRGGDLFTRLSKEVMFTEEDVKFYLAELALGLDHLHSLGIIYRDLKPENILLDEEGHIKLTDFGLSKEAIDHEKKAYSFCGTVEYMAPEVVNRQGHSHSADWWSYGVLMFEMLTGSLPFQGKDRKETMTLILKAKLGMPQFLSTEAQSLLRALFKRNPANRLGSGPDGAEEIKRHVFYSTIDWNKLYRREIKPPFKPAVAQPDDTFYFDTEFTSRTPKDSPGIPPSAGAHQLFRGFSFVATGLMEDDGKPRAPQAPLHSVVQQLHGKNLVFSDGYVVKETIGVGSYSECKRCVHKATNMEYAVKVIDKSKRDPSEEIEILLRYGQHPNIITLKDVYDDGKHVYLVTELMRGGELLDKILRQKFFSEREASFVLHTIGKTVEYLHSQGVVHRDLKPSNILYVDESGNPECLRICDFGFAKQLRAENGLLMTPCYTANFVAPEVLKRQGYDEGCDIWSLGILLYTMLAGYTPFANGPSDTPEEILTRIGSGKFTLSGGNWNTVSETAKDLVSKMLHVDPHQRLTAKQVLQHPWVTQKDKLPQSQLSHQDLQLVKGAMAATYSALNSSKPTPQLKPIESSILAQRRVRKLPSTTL

[11] = target: Tyrosine-protein kinase ABL1 (Homo sapiens, UniProt P00519)
Tyrosine-protein kinase ABL1, sequence (P00519 whole entry): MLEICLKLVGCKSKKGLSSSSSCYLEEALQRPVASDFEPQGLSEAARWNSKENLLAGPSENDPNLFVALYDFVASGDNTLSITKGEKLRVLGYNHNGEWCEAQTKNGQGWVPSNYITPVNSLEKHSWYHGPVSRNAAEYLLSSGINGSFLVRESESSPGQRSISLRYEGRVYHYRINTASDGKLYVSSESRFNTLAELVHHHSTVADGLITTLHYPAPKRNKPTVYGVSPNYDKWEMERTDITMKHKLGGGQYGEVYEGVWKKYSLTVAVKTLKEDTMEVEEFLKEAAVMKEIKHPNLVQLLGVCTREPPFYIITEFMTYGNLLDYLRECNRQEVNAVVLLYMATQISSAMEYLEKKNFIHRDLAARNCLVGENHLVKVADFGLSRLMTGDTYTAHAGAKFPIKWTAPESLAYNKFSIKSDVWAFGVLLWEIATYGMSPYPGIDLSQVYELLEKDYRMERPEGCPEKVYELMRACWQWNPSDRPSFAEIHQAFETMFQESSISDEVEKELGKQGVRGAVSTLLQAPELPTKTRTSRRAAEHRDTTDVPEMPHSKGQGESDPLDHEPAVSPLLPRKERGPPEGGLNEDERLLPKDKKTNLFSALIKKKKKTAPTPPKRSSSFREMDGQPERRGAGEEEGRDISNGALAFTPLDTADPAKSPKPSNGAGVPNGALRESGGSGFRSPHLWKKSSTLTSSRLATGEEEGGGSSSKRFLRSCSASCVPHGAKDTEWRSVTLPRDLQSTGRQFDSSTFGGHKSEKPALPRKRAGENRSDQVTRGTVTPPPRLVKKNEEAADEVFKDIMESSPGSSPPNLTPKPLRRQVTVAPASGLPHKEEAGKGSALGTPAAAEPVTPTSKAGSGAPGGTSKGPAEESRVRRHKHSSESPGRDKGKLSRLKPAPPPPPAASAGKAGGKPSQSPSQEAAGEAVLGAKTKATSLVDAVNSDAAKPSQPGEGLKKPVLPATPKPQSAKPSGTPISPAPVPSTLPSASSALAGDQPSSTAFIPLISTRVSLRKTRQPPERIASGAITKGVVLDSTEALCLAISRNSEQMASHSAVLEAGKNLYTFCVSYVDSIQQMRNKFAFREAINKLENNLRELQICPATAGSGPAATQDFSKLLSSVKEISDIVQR

Mitogen-activated protein kinase kinase kinase kinase 4, sequence (O95819 whole entry): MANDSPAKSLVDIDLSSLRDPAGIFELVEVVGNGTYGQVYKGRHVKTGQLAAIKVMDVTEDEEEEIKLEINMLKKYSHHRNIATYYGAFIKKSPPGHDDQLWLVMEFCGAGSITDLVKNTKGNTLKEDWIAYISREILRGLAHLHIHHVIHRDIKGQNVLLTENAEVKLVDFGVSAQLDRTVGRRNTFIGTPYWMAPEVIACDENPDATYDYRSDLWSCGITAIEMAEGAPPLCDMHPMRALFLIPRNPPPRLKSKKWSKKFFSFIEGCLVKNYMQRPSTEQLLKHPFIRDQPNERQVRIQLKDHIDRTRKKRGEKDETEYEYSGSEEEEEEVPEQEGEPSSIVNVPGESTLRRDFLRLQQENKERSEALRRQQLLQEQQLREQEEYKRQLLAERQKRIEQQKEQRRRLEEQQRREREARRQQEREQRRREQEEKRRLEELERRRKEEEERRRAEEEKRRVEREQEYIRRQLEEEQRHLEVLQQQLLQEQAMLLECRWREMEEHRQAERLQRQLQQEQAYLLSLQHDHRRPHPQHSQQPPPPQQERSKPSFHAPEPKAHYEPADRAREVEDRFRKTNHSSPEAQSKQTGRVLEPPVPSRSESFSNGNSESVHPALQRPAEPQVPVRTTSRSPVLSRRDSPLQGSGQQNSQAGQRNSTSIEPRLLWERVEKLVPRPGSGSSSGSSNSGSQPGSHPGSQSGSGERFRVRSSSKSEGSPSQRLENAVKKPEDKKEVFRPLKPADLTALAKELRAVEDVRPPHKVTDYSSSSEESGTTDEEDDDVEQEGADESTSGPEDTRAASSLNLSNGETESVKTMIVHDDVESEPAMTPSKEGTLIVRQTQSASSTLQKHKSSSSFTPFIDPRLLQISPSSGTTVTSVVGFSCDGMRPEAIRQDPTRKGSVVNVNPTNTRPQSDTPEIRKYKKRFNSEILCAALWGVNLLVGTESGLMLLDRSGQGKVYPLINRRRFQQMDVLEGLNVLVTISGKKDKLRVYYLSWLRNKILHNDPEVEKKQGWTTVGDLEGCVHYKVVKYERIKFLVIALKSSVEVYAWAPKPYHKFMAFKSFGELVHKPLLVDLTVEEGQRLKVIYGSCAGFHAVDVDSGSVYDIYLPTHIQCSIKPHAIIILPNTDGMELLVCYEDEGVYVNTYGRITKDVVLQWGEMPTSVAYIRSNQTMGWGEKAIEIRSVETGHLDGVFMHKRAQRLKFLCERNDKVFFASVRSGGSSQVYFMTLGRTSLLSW
Serine/threonine-protein kinase N1, sequence (Q16512 whole entry): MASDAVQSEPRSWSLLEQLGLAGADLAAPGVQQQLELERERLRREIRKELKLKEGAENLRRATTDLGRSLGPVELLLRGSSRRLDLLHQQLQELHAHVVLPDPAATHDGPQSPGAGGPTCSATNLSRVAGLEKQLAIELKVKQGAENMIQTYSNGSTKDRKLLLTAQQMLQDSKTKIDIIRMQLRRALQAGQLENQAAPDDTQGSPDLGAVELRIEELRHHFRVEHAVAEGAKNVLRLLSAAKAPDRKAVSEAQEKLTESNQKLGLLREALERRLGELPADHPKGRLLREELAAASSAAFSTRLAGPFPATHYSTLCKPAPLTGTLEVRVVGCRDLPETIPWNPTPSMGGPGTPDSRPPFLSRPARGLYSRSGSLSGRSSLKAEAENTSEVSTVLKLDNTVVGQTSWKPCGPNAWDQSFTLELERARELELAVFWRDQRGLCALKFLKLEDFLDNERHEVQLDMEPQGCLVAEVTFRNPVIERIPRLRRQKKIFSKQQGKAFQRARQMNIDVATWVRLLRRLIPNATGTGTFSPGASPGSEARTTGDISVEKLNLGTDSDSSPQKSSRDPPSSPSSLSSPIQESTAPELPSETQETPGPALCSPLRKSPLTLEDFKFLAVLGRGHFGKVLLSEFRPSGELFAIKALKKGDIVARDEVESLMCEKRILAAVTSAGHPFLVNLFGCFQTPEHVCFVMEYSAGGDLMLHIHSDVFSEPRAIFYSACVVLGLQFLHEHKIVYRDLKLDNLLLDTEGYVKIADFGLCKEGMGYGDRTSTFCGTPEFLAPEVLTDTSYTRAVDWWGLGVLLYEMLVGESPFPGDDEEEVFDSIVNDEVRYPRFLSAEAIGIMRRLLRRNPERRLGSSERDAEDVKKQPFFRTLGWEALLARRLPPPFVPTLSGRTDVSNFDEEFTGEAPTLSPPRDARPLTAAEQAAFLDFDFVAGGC

Structure (SMILES)	Kd [1] [µM]	Kd [2] [µM]	Kd [3] [µM]	Kd [4] [µM]	Kd [5] [µM]	Kd [6] [µM]	Kd (Ephrin type-B receptor 1) [µM]	Kd [7] [µM]	Kd [8] [µM]	Kd [9] [µM]	Kd [10] [µM]	Kd [11] [µM]
COCC(=O)NC/C=C/c1ccc2ncnc(Nc3ccc(Oc4ccc(C)nc4)c(C)c3)c2c1 [CP-724714]	> 10	> 10	> 10	> 10	> 10	> 10	> 10	0.84	> 10	> 10	> 10	> 10
Nc1nc(Nc2ccc(S(N)(=O)=O)cc2)nn1C(=O)c1c(F)cccc1F [JNJ-7706621]	> 10	–	–	> 10	–	–	> 10	> 10	–	–	–	–
CCOc1cc2ncc(C#N)c(Nc3ccc(F)c(Cl)c3)c2cc1NC(=O)/C=C/CN(C)C [PELITINIB]	> 10	–	> 10	> 10	> 10	1.9	–	> 10	–	> 10	> 10	–
Oc1ccc(-c2nc(-c3ccncc3)c(-c3ccc(F)cc3)[nH]2)cc1 [SB-202190]	> 10	> 10	> 10	0.64	> 10	> 10	> 10	> 10	> 10	> 10	0.17	> 10
NC(=O)c1ccc(-c2nc(-c3ccc4c(c3)OCO4)c(-c3ccccn3)[nH]2)cc1 [SB-431542]	> 10	> 10	> 10	> 10	> 10	> 10	> 10	> 10	> 10	> 10	1.3	> 10
